The values below come from patent publication US7462614B2, “Imidazotriazine compounds” (Smithkline Beecham Corporation, priority 2003, dated 2008).

Where only a bound is given, the exact number is not on record here.

The target in the assay is T1, truncated human PLK1 (kinase domain) (Homo sapiens, UniProt P53350).
T1 construct: made in house; host or cells: baculovirus-infected T. ni insect cells
T1 sequence (P53350 21-346): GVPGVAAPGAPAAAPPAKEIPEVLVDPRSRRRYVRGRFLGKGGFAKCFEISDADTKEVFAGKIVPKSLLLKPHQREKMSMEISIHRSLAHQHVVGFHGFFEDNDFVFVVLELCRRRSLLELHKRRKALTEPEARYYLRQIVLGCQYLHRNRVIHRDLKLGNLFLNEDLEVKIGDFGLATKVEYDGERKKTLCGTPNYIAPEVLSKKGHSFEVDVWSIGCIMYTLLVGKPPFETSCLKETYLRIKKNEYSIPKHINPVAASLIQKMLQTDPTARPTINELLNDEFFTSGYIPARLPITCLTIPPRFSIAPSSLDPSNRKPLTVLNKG
Put plainly: Assay for Inhibition of PLK1 (33P SPA enzyme activity). It counts as biochemical. As to conditions: 1 μM ATP, 2 nM enzyme; read-out: Ave pIC50 PLK Enzyme Inhibition (converted). As for the experimental part: I. Assay for Inhibition of PLK1
A. Preparation of 6× N-Terminal His-Tagged PLK Kinase Domain
All procedures are performed at 4° C. Cells are lysed in 25 mM HEPES, 200 mM NaCl, 25 mM imidazole; pH 8.0. The homogenate is centrifuged at 14K rpm in a SLA-1500 rotor for 40 min and the supernatant filtered through a 1.2 micron filter. The supernatant is loaded onto a Nickel chelating Sepharose (Amersham Pharmacia) column and washed with 25 mM HEPES, 500 mM NaCl, 25 mM imidazole; pH 8.0. […] PLK is concentrated using a 10 kDa molecular weight cutoff membrane and then loaded onto a Superdex 75 gel filtration (Amersham BioSciences) column equilibrated in 25 mM HEPES, 1 mM DTT, 500 mM NaCl; pH 8.0. Fractions containing PLK are determined by SDS-PAGE. PLK is pooled, aliquoted and stored at […]. Samples are quality controlled using mass spectrometry.
B. Enzyme Activity±Inhibitors is Determined As Follows:
Compounds are added to the plate (1 μL in 100% DMSO).
Immediately upon addition of enzyme and thorough mixing, add 20 uL per well into 384-well white plates containing compounds and controls. […] The enzymatic reaction is stopped with 50 μl of bead mix (50 mM EDTA, 2 mg/ml Streptavidin-coated SPA beads in Standard Dulbecco's PBS (without Mg^2+and Ca^2+), and 60 μM ATP).
Regarding `Cc1nc(-c2ccccc2)n2nc(Nc3cccc(C(F)(F)F)c3)ncc12` [Example 26, 5-Methyl-7-phenyl-N-[3-(trifluoromethyl)phenyl]imidazo[5,1-f][1,2,4]triazin-2-amine], the IC50 is 0.1 to 10 µM.

In the case of `COc1cc(Nc2ncc3c(C)nc(-c4ccc5c(c4)OCO5)n3n2)cc(OC)c1OC` [Example 28, 7-(1,3-Benzodioxol-5-yl)-5-methyl-N-(3,4,5-trimethoxyphenyl)-imidazo[5,1-f][1,2,4]triazin-2-amine], the IC50 was 0.1 to 10 µM.

For the molecule `COC(=O)c1ccc(-c2nc(C)c3cnc(Nc4cc(OC)c(OC)c(OC)c4)nn23)cc1` [Example 29, Methyl 4-{5-methyl-2-[(3,4,5-trimethoxyphenyl)amino]imidazo-[5,1-f][1,2,4]triazin-7-yl}benzoate], the IC50 is 0.1 to 10 µM.

On to `COc1cc(Nc2ncc3c(C)nc(-c4cccc(N)c4)n3n2)cc(OC)c1OC` [Example 31, 7-(3-Aminophenyl)-5-methyl-N-(3,4,5-trimethoxyphenyl)imidazo-[5,1-f][1,2,4]triazin-2-amine], for which the IC50 was below 0.1 µM.

In the case of `COc1cc(Nc2ncc3c(C)nc(-c4cc5ccccc5[nH]4)n3n2)cc(OC)c1OC` [Example 32, 7-(1H-Indol-2-yl)-5-methyl-N-(3,4,5-trimethoxyphenyl)imidazo-[5,1-f][1,2,4]triazin-2-amine], the IC50 was 0.1 to 10 µM.

In the case of `COc1cc(Nc2ncc3c(C)nc(-c4ccc([N+](=O)[O-])[nH]4)n3n2)cc(OC)c1OC` [Example 33, 5-Methyl-7-(5-nitro-1H-pyrrol-2-yl)-N-(3,4,5-trimethoxyphenyl)-imidazo[5,1-f][1,2,4]triazin-2-amine], the IC50 was 0.1 to 10 µM.

With `COc1cc(Nc2ncc3c(C)nc(-c4cccn4C)n3n2)cc(OC)c1OC` [Example 34, 5-Methyl-7-(1-methyl-1H-pyrrol-2-yl)-N-(3,4,5-trimethoxyphenyl)-imidazo[5,1-f][1,2,4]triazin-2-amine], the IC50 was 0.1 to 10 µM.

Turning to `COc1cc(Nc2ncc3c(C)nc(-c4cn(C)c5ccccc45)n3n2)cc(OC)c1OC` [Example 35, 5-Methyl-7-(1-methyl-1H-indol-3-yl)-N-(3,4,5-trimethoxyphenyl)-imidazo[5,1-f][1,2,4]triazin-2-amine], the IC50 was 0.1 to 10 µM.

For the molecule `COc1cc(Nc2ncc3c(C)nc(-c4ccoc4)n3n2)cc(OC)c1OC` [Example 36, 7-(3-Furyl)-5-methyl-N-(3,4,5-trimethoxyphenyl)imidazo[5,1-f][1,2,4]triazin-2-amine], the IC50 is 0.1 to 10 µM.

Turning to `COc1cc(Nc2ncc3c(C)nc(-c4ccc5[nH]ccc5c4)n3n2)cc(OC)c1OC` [Example 37, 7-(1H-Indol-5-yl)-5-methyl-N-(3,4,5-trimethoxyphenyl)imidazo-[5,1-f][1,2,4]triazin-2-amine], the IC50 is 0.1 to 10 µM.

Regarding `COc1cc(Nc2ncc3c(C)nc(-c4ccccc4Sc4ccccc4C#N)n3n2)cc(OC)c1OC` [Example 38, 2-[(2-{5-Methyl-2-[(3,4,5-trimethoxyphenyl)amino]imidazo[5,1-f][1,2,4]triazin-7-yl}phenyl)thio]benzonitrile], the IC50 was 0.1 to 10 µM.

Consider `COc1cc(Nc2ncc3c(C)nc(-c4ccccc4Nc4cccc(C(F)(F)F)c4)n3n2)cc(OC)c1OC` [Example 39, 5-Methyl-7-(2-{[3-(trifluoromethyl)phenyl]amino}phenyl)-N-(3,4,5-trimethoxyphenyl)imidazo[5,1-f][1,2,4]triazin-2-amine], for which the IC50 was above 10 µM.

As for `COc1cc(Nc2ncc3c(C)nc(-c4cccc5cccnc45)n3n2)cc(OC)c1OC` [Example 40, 5-Methyl-7-quinolin-8-yl-N-(3,4 5-trimethoxyphenyl)imidazo[5,1-f][1,2,4]triazin-2-amine], the IC50 is above 10 µM.

Take `Cc1nc(-c2cccc(C(F)(F)F)c2)n2nc(Nc3ccc(S(N)(=O)=O)cc3)ncc12` [Example 45, 4-({5-Methyl-7-[3-(trifluoromethyl)phenyl]imidazo[5,1-f][1,2,4]triazin-2-yl}amino)benzenesulfonamide]: the IC50 was 0.1 to 10 µM.

As for `Cc1nc(-c2cccc(C(F)(F)F)c2)n2nc(Nc3ccc(O)cc3)ncc12` [Example 49, 4-({5-Methyl-7-[3-(trifluoromethyl)phenyl]imidazo[5,1-f][1,2,4]triazin-2-yl}amino)phenol], the IC50 is below 0.1 µM.

Regarding `Cc1nc(-c2cccc(C(F)(F)F)c2)n2nc(Nc3ccc(OCCN4CCCC4)cc3)ncc12` [Example 50, 5-Methyl-N-[4-(2-pyrrolidin-1-ylethoxy)phenyl]-7-[3-(trifluoromethyl)phenyl]imidazo[5,1-f][1,2,4]triazin-2-amine], the IC50 is 0.1 to 10 µM.

Take `COc1ccc(F)cc1Nc1ncc2c(C)nc(-c3cccc(C(F)(F)F)c3)n2n1` [Example 51, N-(5-Fluoro-2-methoxyphenyl)-5-methyl-7-[3-(trifluoromethyl)phenyl]-imidazo[5,1-f][1,2,4]triazin-2-amine]: the IC50 was 0.1 to 10 µM.

In the case of `COc1ccc(CCNC(C)=O)cc1Nc1ncc2c(C)nc(-c3cccc(C(F)(F)F)c3)n2n1` [Example 52, N-{2-[4-Methoxy-3-({5-methyl-7-[3-(trifluoromethyl)phenyl]-imidazo[5,1-f][1,2,4]triazin-2-yl}amino)phenyl]ethyl}acetamide], the IC50 was below 0.1 µM.

Take `COc1ccc(CCN)cc1Nc1ncc2c(C)nc(-c3cccc(C(F)(F)F)c3)n2n1` [Example 53, N-[5-(2-Aminoethyl)-2-methoxyphenyl]-5-methyl-7-[3-(trifluoromethyl)phenyl]imidazo[5,1-f][1,2,4]triazin-2-amine]: the IC50 was below 0.1 µM.

`COc1ccc(Nc2ncc3c(C)nc(-c4cccc(C(F)(F)F)c4)n3n2)c(OC)c1` [Example 54, N-(2,4-Dimethoxyphenyl)-5-methyl-7-[3-(trifluoromethyl)phenyl]-imidazo[5,1-f][1,2,4]triazin-2-amine]: the IC50 is 0.1 to 10 µM.

As for `COc1ccc(OC)c(Nc2ncc3c(C)nc(-c4cccc(C(F)(F)F)c4)n3n2)c1` [Example 55, N-(2,5-Dimethoxyphenyl)-5-methyl-7-[3-(trifluoromethyl)phenyl]-imidazo[5,1-f][1,2,4]triazin-2-amine], the IC50 was 0.1 to 10 µM.

For the molecule `CCOC(=O)c1cncc(Nc2ncc3c(C)nc(-c4cccc(C(F)(F)F)c4)n3n2)c1` [Example 56, Ethyl 5-({5-methyl-7-[3-(trifluoromethyl)phenyl]imidazo[5,1-f][1,2,4]triazin-2-yl}amino)nicotinate], the IC50 was 0.1 to 10 µM.

As to `COc1cc(Nc2ncc3c(C)nc(-c4cccc(C#Cc5cn[nH]c5)c4)n3n2)cc(OC)c1OC` [Example 58, 5-Methyl-7-[3-(1H-pyrazol-4-ylethynyl)phenyl]-N-(3,4,5-trimethoxyphenyl)imidazo[5,1-f][1,2,4]triazin-2-amine], the IC50 was 0.1 to 10 µM.

Regarding `COc1cc(Nc2ncc3c(C)nc(-c4cccc(-c5cccc(C(=O)O)c5)c4)n3n2)cc(OC)c1OC` [Example 59, 3′-{5-Methyl-2-[(3,4,5-trimethoxyphenyl)amino]imidazo[5,1-f][1,2,4]triazin-7-yl}-1,1′-biphenyl-3-carboxylic acid], the IC50 was 0.1 to 10 µM.

As to `COc1cc(Nc2ncc3c(C)nc(-c4cccc(-c5ccc(CC(N)C(=O)O)cc5)c4)n3n2)cc(OC)c1OC` (stereo not drawn) [Example 60, 2-Amino-3-(3′-{5-methyl-2-[(3,4,5-trimethoxyphenyl)amino]imidazo-[5,1-f][1,2,4]triazin-7-yl}-1,1′-biphenyl-4-yl)propanoic acid], the IC50 was 0.1 to 10 µM.

As to `COc1cc(Nc2ncc3c(C)nc(-c4cccc(-c5ccccc5C(F)(F)F)c4)n3n2)cc(OC)c1OC` [Example 61, 5-Methyl-7-[2′-(trifluoromethyl)-1,1′-biphenyl-3-yl]-N-(3,4,5-trimethoxyphenyl)imidazo[5,1-f][1,2,4]triazin-2-amine], the IC50 is 0.1 to 10 µM.

`COc1cc(Nc2ncc3c(C)nc(-c4cccc(/C(=C\C(N)=O)c5ccccc5)c4)n3n2)cc(OC)c1OC` [Example 62, (2Z)-3-(3-{5-Methyl-2-[(3,4,5-trimethoxyphenyl)amino]-imidazo[5,1-f][1,2,4]triazin-7-yl}phenyl)-3-phenylprop-2-enamide]: the IC50 was 0.1 to 10 µM.

In the case of `CCS(=O)(=O)c1ccc(OC)c(Nc2cccc(-c3nc(C)c4cnc(Nc5cc(OC)c(OC)c(OC)c5)nn34)c2)c1` [Example 63, 7-(3-{[5-(Ethylsulfonyl)-2-methoxyphenyl]amino}phenyl)-5-methyl-N-(3,4,5-trimethoxyphenyl)imidazo[5,1-f][1,2,4]triazin-2-amine], the IC50 was above 10 µM.

In the case of `COc1cc(Nc2ncc3c(C)nc(-c4cccc(Nc5ccc(Cn6cncn6)cc5)c4)n3n2)cc(OC)c1OC` [Example 64, 5-Methyl-7-(3-{[4-(1H-1,2,4-triazol-1-ylmethyl)phenyl]amino}-phenyl)-N-(3,4,5-trimethoxyphenyl)imidazo[5,1-f][1,2,4]triazin-2-amine], the IC50 was 0.1 to 10 µM.

Take `COc1cc(Nc2ncc3c(C)nc(-c4cccc(Nc5ccc(-n6ccnc6)cc5)c4)n3n2)cc(OC)c1OC` [Example 65, 7-(3-{[4-(1H-Imidazol-1-yl)phenyl]amino}phenyl)-5-nv-5-methyl-N-(3,4,5-trimethoxyphenyl)imidazo[5,1-f][1,2,4]triazin-2-amine]: the IC50 was above 10 µM.
